Measurements from ChEMBL document CHEMBL5131541, “Structural Feature Analyzation Strategies toward Discovery of Orally Bioavailable PROTACs of Bruton's Tyrosine Kinase for the Treatment of Lymphoma” (J Med Chem, 2022).
Each block holds one molecule with its values, some of them ahead of it. Activity calls are given as the source filed them. The calls are words filed in the database; no cut-off is given here.

Experiments:
[1] = Cmax in Sprague-Dawley rat at 5 to 10 mg/kg, po administered as cassette dose measured upto 24 hrs by LC-MS analysis; assay type: ADME, organism-based; set-up: time < 24 hrs, route po; conditions: in vivo, dose 5-10 mg/kg
[2] = target: T1, Tyrosine-protein kinase BTK (Homo sapiens, UniProt Q06187); test: Induction of BTK degradation in human MINO cells incubated for 24 hrs by Western blot; assay type: cell-based; conditions: dose 1-1000 nM, DDE = dose-dependent effect
T1 sequence (Q06187 whole entry): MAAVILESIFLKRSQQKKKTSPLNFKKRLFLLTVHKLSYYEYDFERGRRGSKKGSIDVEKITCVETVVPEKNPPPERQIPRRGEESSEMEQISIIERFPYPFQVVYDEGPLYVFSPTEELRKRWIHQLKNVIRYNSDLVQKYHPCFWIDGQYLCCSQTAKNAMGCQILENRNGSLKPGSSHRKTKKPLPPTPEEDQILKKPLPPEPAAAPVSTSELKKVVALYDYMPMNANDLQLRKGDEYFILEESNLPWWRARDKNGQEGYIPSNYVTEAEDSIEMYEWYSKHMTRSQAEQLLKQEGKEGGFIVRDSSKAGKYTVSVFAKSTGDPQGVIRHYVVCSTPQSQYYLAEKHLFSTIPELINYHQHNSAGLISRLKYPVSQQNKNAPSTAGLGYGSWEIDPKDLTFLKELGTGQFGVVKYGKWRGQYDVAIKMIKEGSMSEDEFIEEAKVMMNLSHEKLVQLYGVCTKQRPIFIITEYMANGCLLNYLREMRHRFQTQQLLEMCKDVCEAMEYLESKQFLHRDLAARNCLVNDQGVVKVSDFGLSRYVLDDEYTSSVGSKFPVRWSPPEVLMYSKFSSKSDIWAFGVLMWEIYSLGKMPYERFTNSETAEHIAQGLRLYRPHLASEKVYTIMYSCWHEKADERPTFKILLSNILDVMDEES

OCI-Ly10 [3] = test: Antitumor activity against human OCILY10 cells xenografted in SCID mouse assessed as tumor growth inhibition at 30 mg/kg, po bid measured after 17 days relative to control; assay type: functional; set-up: scale not given: the % may be the effect or the level left; conditions: time 17 day
[4] = Tmax in Sprague-Dawley rat at 5 to 10 mg/kg, po administered as cassette dose measured upto 24 hrs by LC-MS analysis; assay type: ADME, organism-based; conditions: in vivo, dose 5-10 mg/kg
[5] = target: T1, Tyrosine-protein kinase BTK; test: Induction of BTK degradation in human MINO cells at 0.1 to 1000 nM incubated for 8 hrs by Western blot analysis relative to control; assay type: cell-based; conditions: dose 0.1-1000 nM
OCI-Ly10 [6] = test: Antitumor activity against human OCILY10 cells xenografted in SCID mouse assessed as tumor growth inhibition at 10 mg/kg, po bid measured after 17 days relative to control; assay type: functional; set-up: scale not given: the % may be the effect or the level left; conditions: time 17 day
[7] = Toxicity in SCID mouse xenografted with OCILY10 cells assessed as effect on body weight at 10 to 30 mg/kg, po bid measured after 17 days; assay type: organism-based; conditions: in vivo, 408 h, dose 10-30 mg/kg, time 17 day
HEK293 [8] = test: Induction of BTK T316 mutant degradation in human HEK293 cells incubated for 24 hrs by Western blot analysis; assay type: cell-based; conditions: dose 1-1000 nM, DDE = dose-dependent effect
[9] = Dose normalized AUC (0 to t) in Sprague-Dawley rat at 5 to 10 mg/kg, po administered as cassette dose measured upto 24 hrs by LC-MS analysis; assay type: ADME, organism-based; conditions: in vivo, dose 5-10 mg/kg
[10] = Cmax in ICR mouse at 100 mg/kg, po measured upto 48 hrs by LC/MS analysis; assay type: ADME, organism-based; set-up: dose 100 mg/kg, time < 48 hrs, route po; conditions: in vivo
[11] = Oral bioavailability in ICR mouse at 100 mg/kg measured upto 48 hrs by LC/MS analysis; assay type: ADME, organism-based; conditions: in vivo
[12] = AUC (0 to t) in Sprague-Dawley rat at 5 to 10 mg/kg, po administered as cassette dose measured upto 24 hrs by LC-MS analysis; assay type: ADME, organism-based; set-up: time < 24 hrs, route po; conditions: in vivo, dose 5-10 mg/kg
[13] = target: T1, Tyrosine-protein kinase BTK; test: Induction of BTK degradation in human MINO cells assessed as reduction in NFkappaB phosphorylation incubated for 24 hrs by Western blot analysis; assay type: cell-based; conditions: dose 1-200 nM, DDE = dose-dependent effect
OCI-Ly10 [14] = test: cells; conditions: Homo sapiens
[15] = target: T1, Tyrosine-protein kinase BTK; test: Induction of BTK degradation in human MINO cells assessed as reduction in PLCgamma-2 phosphorylation incubated for 24 hrs by Western blot analysis; assay type: cell-based; conditions: dose 1-200 nM, DDE = dose-dependent effect
[16] = AUC (0 to t) in ICR mouse at 100 mg/kg, po measured upto 48 hrs by LC/MS analysis; assay type: ADME, organism-based; set-up: time < 48 hrs, dose 100 mg/kg, route po; conditions: in vivo
[17] = Volume of distribution at steady state in ICR mouse at 2 mg/kg, iv measured upto 48 hrs by LC/MS analysis; assay type: ADME, organism-based; conditions: in vivo, read-out: Vdss
[18] = target: Proto-oncogene tyrosine-protein kinase Src (Homo sapiens) (UniProt P12931); test: Induction of c-SRC tyrosine kinase degradation in human MINO cells at 100 nM measured after 8 hrs by proteomic analysis; assay type: cell-based
Sequence of Proto-oncogene tyrosine-protein kinase Src (Homo sapiens) (P12931 2-536 limits assumed): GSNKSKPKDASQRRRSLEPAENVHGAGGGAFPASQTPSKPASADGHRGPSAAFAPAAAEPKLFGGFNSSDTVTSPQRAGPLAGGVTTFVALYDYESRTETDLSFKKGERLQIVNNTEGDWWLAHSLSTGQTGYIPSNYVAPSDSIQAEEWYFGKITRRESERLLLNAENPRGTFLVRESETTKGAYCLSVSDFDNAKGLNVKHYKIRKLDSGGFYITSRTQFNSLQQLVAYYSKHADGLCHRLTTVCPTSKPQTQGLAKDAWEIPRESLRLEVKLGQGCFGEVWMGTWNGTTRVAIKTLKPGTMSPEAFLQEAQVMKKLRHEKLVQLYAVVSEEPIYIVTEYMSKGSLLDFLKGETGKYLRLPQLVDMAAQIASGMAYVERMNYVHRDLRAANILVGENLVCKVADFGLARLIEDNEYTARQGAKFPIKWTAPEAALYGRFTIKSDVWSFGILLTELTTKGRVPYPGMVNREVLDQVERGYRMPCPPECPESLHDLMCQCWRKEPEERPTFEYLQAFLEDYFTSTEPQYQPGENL

[19] = target: T1, Tyrosine-protein kinase BTK; test: Inhibition of BTK (unknown origin)
[20] = AUC (0 to infinity) in ICR mouse at 100 mg/kg, po measured upto 48 hrs by LC/MS analysis; assay type: ADME, organism-based; set-up: time < 48 hrs, dose 100 mg/kg, route po; conditions: in vivo
[21] = target: T1, Tyrosine-protein kinase BTK; test: Induction of BTK degradation in human MINO cells at 100 nM measured after 8 hrs by proteomic analysis; assay type: cell-based
[22] = MRT in ICR mouse at 2 mg/kg, iv measured upto 48 hrs by LC/MS analysis; assay type: ADME, organism-based; conditions: in vivo
[23] = target: Tyrosine-protein kinase BTK (Mus musculus) (UniProt P35991); test: In vivo induction of BTK degradation in ICR mouse monocytes assessed as protein remaining at 100 mg/kg, po after 6 hrs by Western blot analysis relative to control; assay type: functional, organism-based
Sequence of Tyrosine-protein kinase BTK (Mus musculus) (P35991 whole entry): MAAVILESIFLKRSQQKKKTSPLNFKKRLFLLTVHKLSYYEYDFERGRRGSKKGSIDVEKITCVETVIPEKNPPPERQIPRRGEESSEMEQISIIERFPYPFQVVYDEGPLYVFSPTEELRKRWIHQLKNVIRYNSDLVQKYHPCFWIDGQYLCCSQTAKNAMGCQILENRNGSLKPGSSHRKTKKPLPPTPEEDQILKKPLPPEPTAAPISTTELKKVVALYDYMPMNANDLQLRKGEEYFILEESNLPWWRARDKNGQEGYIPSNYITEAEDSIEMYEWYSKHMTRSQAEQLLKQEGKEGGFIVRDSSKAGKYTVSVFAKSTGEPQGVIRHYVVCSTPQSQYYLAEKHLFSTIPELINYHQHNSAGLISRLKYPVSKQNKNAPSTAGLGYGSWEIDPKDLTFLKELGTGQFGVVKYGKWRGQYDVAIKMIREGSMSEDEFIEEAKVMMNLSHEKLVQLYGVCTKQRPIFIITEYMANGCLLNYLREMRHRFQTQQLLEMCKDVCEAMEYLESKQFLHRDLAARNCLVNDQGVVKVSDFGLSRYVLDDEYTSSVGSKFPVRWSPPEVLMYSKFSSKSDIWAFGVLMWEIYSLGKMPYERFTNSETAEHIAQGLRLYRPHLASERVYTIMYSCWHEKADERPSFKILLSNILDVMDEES

[24] = Half life in Sprague-Dawley rat at 5 to 10 mg/kg, po administered as cassette dose measured upto 24 hrs by LC-MS analysis; assay type: ADME, organism-based; conditions: in vivo, dose 5-10 mg/kg
[25] = target: T1, Tyrosine-protein kinase BTK; test: Induction of BTK degradation in human MINO cells incubated for 24 hrs by Western blot based densitometry analysis; assay type: cell-based
HEK293 [26] = test: Induction of BTK C481 mutant degradation in human HEK293 cells incubated for 24 hrs by Western blot analysis; assay type: cell-based; conditions: dose 1-1000 nM, DDE = dose-dependent effect
[27] = Induction of leukocyte c-SRC kinase degradation in human MINO cells at 100 nM measured after 8 hrs by proteomic analysis
[28] = target: T1, Tyrosine-protein kinase BTK; test: Induction of BTK degradation in human MINO cells assessed as maximum degradation incubated for 24 hrs by Western blot based densitometry analysis relative to control; assay type: cell-based
TMD8 = test: cells; conditions: Homo sapiens
JeKo-1 [29] = test: cells; conditions: Homo sapiens
[30] = Tmax in ICR mouse at 100 mg/kg, po measured upto 48 hrs by LC/MS analysis; assay type: ADME, organism-based; conditions: in vivo
[31] = target: Tyrosine-protein kinase BTK (Mus musculus) (UniProt P35991); test: In vivo induction of BTK degradation in ICR mouse monocytes assessed as protein remaining at 100 mg/kg, po after 24 hrs by Western blot analysis relative to control; assay type: functional, organism-based; conditions: Monocyte
[32] = Half life in ICR mouse at 100 mg/kg, po measured upto 48 hrs by LC/MS analysis; assay type: ADME, organism-based; conditions: in vivo
JeKo-1 [33] = test: cells; conditions: Homo sapiens; remark: listed apart in the source
[34] = Clearance in ICR mouse at 2 mg/kg, iv measured upto 48 hrs by LC/MS analysis; assay type: ADME, organism-based; conditions: in vivo
[35] = target: T1, Tyrosine-protein kinase BTK; test: Induction of BTK degradation in human MINO cells at 0.1 to 1000 nM incubated for 2 hrs by Western blot analysis; assay type: cell-based; conditions: dose 0.1-1000 nM
[36] = system: Tyrosine-protein kinase BTK (Homo sapiens), Q06187 [C481S]; test: Inhibition of BTK C481S mutant (unknown origin)
Sequence of Tyrosine-protein kinase BTK (Homo sapiens), Q06187 [C481S] (Q06187 whole entry C481S): as the sequence (Q06187 whole entry) above, with C481S counted along it

[37] = target: T1, Tyrosine-protein kinase BTK; test: Induction of BTK degradation in human MINO cells at 1000 nM incubated for 24 hrs by Western blot; assay type: cell-based

- Cmax [1]: 16 ng/mL
- Activity [2]: Dde
- Tmax [4]: 0.7 h
- Activity [5]: 91%
- AUCt/dose [9]: 8 ng·h/mL/mg
- Cmax [10]: 3090 ng/mL
- bioavailability [11]: 12%
- AUC(0-t) at 24 h [12]: 83 ng·h/mL
- Activity [13]: Dde
- IC50 (OCI-Ly10 [14]): 5.9 nM
- Activity [15]: Dde
- AUC(0-t) at 48 h [16]: 16900 ng·h/mL
- Vd [17]: 3.1 L/kg
- Activity [18]: Active
- IC50 [19]: 9 nM
- AUC(0-inf) [20]: 17100 ng·h/mL
- Activity [21]: Active
- MRT [22]: 4.5 h
- Activity [23]: Active
- half-life [24]: 12.7 h
- DC50 [25]: 5.8 nM
- Activity [27]: Active
- Emax [28]: 96%
- IC50 (TMD8): 4.7 nM
- IC50 (JeKo-1 [29]): 708 nM
- Tmax [30]: 8.3 h
- Activity [31]: 24%
- half-life [32]: 1 h
- IC50 (JeKo-1 [33]): 105 nM
- clearance [34]: 11.8 mL/min/kg
- Activity [35]: Active
- inhibition [36]: Active
Structure (SMILES): Nc1ncnc2c1c(-c1ccc(Oc3ccccc3)cc1)nn2C1CCN(C2CCN(CC#Cc3ccc4c(c3)CN(C3CCC(=O)NC3=O)C4=O)CC2)CC1 (stereo not given)
- Activity (OCI-Ly10 [3]): 96.9%
- Activity (OCI-Ly10 [6]): 50.9%
- Activity [7]: Non-Toxic
- Activity (HEK293 [8]): Dde
- Activity (HEK293 [26]): Dde

- Activity [2]: Dde
- Activity [37]: > 50%
- IC50 [19]: 9 nM
Structure (SMILES): Nc1ncnc2c1c(-c1ccc(Oc3ccccc3)cc1)nn2[C@@H]1CCCN(C(=O)CCCC(=O)NCC#CCN2CCN(CC#Cc3ccc4c(c3)CN(C3CCC(=O)NC3=O)C4=O)CC2)C1 (stereo not given in full)
